Measurements from paper PMC8230625 (International Journal of Molecular Sciences, 2021).
pEC50, pIC50: −log10 of the molar value. Entries after “also recorded” stand apart in the source; their conditions may differ.

Experiments:
hERβ = tested on: hERβ; set-up: method as in PMID 16194592; conditions: cited from earlier work
[1] = target: T1, hERα (Saccharomyces cerevisiae BLYES strain) (Homo sapiens, UniProt P03372); assay: cell-based; type: cell-based; conditions: for Effect of subtoxic (non-estrogenic) concentration of the compound on the estrogenic effect of ZEN / CI Value (combination index) / Combined Estrogenic Effect / Combined Estrogenic Effect (grade symbol) / Combined estrogenic effect in Figure 5B: BLYES; for Effect of subtoxic (non-estrogenic) concentration of the compound on the estrogenic effect of ZEN: co-treatment with ZEN (approx. 20% estrogenicity), α-ZEL 1.56 × 10^−3 µM, ZAN 6.24 × 10^−3 µM, AOH up to 48.4 µM, Figure 5A; for CI Value (combination index) / Combined Estrogenic Effect / Combined Estrogenic Effect (grade symbol): + 6.28 × 10^−2 µM ZEN; for Combined estrogenic effect in Figure 5B: + 62.8 ×10^-3 μM ZEN
T1 construct: expressed in transfected cells; host or cells: Saccharomyces cerevisiae BLYES strain (hERα gene integrated in the chromosome)
T1 sequence (P03372 whole entry): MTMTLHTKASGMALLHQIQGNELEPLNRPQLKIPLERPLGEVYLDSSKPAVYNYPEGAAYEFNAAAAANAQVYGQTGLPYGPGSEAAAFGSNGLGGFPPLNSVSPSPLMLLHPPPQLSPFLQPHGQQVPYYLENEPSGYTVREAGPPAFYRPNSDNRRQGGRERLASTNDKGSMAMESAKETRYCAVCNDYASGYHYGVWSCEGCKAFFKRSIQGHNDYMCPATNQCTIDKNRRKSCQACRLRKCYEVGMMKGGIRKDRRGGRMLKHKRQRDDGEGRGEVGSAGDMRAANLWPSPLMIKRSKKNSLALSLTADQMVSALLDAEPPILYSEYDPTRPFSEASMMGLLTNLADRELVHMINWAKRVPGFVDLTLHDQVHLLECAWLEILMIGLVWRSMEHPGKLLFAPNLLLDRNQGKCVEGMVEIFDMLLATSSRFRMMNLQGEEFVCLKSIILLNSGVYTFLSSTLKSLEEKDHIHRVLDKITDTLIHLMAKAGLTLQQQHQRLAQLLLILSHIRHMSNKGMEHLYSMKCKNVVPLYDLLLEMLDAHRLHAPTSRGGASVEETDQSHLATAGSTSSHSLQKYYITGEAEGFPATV
Text: The Saccharomyces cerevisiae BLYES strain was applied to examine the estrogenic activity of the compounds tested. This bioluminescent yeast bioreporter harbors the hERα gene on its chromosome, and it has two plasmids with genes responsible for bioluminescence. The pUTK404 plasmid contains luxC, -D, and -E genes from Photorhabdus luminescens and flavin oxidoreductase gene (frp) from Vibrio harveyi. The pUTK407 plasmid contains tandem estrogen responsive elements (EREs) that initiate the transcription of luxA and luxB genes after binding the dimer formed by estrogen receptor—ligand complexes.
S. cerevisiae BLYES strain was grown in 30 mL of yeast growth medium (YMM leu-, ura-) for 18–20 h at 30 °C.
Stock solutions of the compounds tested were prepared in methanol and stored at −20 °C. Estrogen assays were carried out on 96-well (PS, F-bottom) microplates (Greiner Bio-One Hungary Ltd., Mosonmagyaróvár, Hungary). In single compound tests, stock solutions of the compounds were serially diluted with methanol; whereas, in co-exposure experiments, a 20-µL mixture of the solutions was placed into the wells of the microplates. After the evaporation of methanol, yeast culture (200 µL; OD600 of 1.000 ± 0.050) were pipetted into each well. E2 was applied as a positive control, while wells containing only yeast cells and yeast cells with methanol served as negative and solvent controls, respectively. Bioluminescence (cps, counts per second) was measured after 5-h incubation (30 °C) with a VictorX Multilabel Plate Reader (Perkin Elmer Inc., Waltham, MA, USA).
(§1) Combined effects were evaluated based on combination indices (CI) determined using the CompuSyn software (ComboSyn Inc., Paramus, NJ, USA) by the median-effect equation of the mass-action law:(1) logfa/fu=m×log(D)−m×log(Dm), where fa and fu are the affected and unaffected fractions of the system, respectively; D represents the dose, Dm denotes the dose necessary for the production of median effect, while m is the sigmoidicity coefficient (m > 1 sigmoidal, m = 1 hyperbolic, m < 1 flat sigmoidal).
(§2) The combined effects of mycotoxins were determined by the CI values calculated based on the following equation [68]:(2) CI=(D)1/(Dx)1+(D)2/(Dx)2, where (Dx)1 and (Dx)2 are the individual doses necessary for the production of x% effect, while (D)1 and (D)2 are the doses of the two compounds that combined evoke the same effect as (Dx)1 alone or (Dx)2 alone, i.e., the targeted x% effect.
Zero percent was defined in each measurement as the mean of the methanol control values, and 100% was defined as the mean of all plateau values of single compounds’ concentration—response curves.

androgen receptors = tested on: androgen receptors; set-up: method as in PMID 28910742; conditions: yeast reporters bioassay; cited from earlier work
HeLa cells = assay: in vitro; conditions: HeLa; for Combined cytotoxic effect in Figure 3B / Combined Cytotoxic Effect / Combined Cytotoxic Effect (grade symbol) / CI Value (combination index) / pIC50: 24 h; for CI Value (combination index): CompuSyn; for Concentration at (and above) which statistically significant (p < 0.01) decrease in cell viability was noticed: 24 h incubation, single compound; for pIC50: Homo sapiens, read-out: Dm (IC50), viability of HeLa cells (ATP/well)
Description: (§3) The HeLa cervical cancer adherent cell line (ATCC: CCL-2) was applied for the evaluation of individual and combined effects of mycotoxins on cell viability. The cells were cultured in DMEM (high glucose, 4500 mg/L) with 10% FBS, penicillin (100 U/mL), and streptomycin (100 μg/mL) in sterile plastic cell culture flasks (75 cm^2; 5% CO2, 37 °C). The cells were trypsinized and plated onto 96-well sterile plastic plates. Stock solutions (each 5000 μM) of ZEN, ZELs, ZAN, and ZALs used in cell experiments were prepared in 96 v/v% ethanol (spectroscopic grade; VWR, Debrecen, Hungary). Stock solutions of AOH (5000 μM or 40 mM) were prepared in spectroscopic grade dimethyl sulfoxide (DMSO; Fluka, Morris Plains, NJ, USA). Mycotoxin stock solutions were stored at −20 °C.
(§4) HeLa cells were treated with ZEN, α/β-ZEL, ZAN, α/β-ZAL, and AOH (0–250 μM) for 24 h. […] The cell viability was evaluated based on the ATP levels/well employing a previously described method without modifications.
as §1, §2

in vitro = conditions: human
Description: as §3, §4, §1, §2

estrogen receptors = tested on: estrogen receptors; set-up: method as in PMID 28910742; conditions: yeast reporters bioassay; cited from earlier work
hERα = tested on: hERα; set-up: method as in PMID 16194592; conditions: cited from earlier work
Ishikawa cells = tested on: Ishikawa cells; set-up: method as in PMID 16194592; conditions: alkaline phosphatase assay; cited from earlier work
[2] = 10 µM (lower toxic concentration) of the compound + 20 µM ZEN
[3] = 10 µM of the compound + 20 µM ZEN
[4] = 30 µM (higher toxic concentration) of the compound + 20 µM ZEN
[5] = 30 µM of the compound + 20 µM ZEN
[6] = higher estrogenic concentration of the compound (as E22)
[7] = lower estrogenic concentration of the compound (as E21)

Compound	Effect of subtoxic (non-estrogenic) concentration of the compound on the estrogenic effect of ZEN [1]	Combined cytotoxic effect in Figure 3B (HeLa cells; [2])	Combined Cytotoxic Effect (HeLa cells; [3])	Combined Cytotoxic Effect (grade symbol) (HeLa cells; [3])	CI Value (combination index) (HeLa cells; [3])	Combined cytotoxic effect in Figure 3B (HeLa cells; [4])	Combined Cytotoxic Effect (HeLa cells; [5])	Combined Cytotoxic Effect (grade symbol) (HeLa cells; [5])	CI Value (combination index) (HeLa cells; [5])	Concentration at (and above) which statistically significant (p < 0.01) decrease in cell viability was noticed (HeLa cells)	pIC50 (HeLa cells)	further results
Cc1cc(O)cc2oc(=O)c3c(O)cc(O)cc3c12 [AOH, alternariol]	did not cause any relevant change; also recorded: did not increase the estrogenic effect of ZEN	Syn and synergism	Synergism (CI < 0.8: synergism)	+ (0.60 < CI < 0.80: +)	0.73	Syn and synergism	Synergism (CI < 0.8: synergism)	++ (CI < 0.60: ++)	0.50	10 µM	4.47	Fold lower affinity toward hERβ compared to 17β-estradiol (E2) (hERβ): 2500 fold; Estrogenic effect in BLYES assay ([1]; single compound, even at 50 µM): did not induce estrogenic effects; also recorded: did not show estrogenicity; Behaviour at androgen receptors (androgen receptors): full agonist; cytotoxicity at 24 h, 10 µM (in vitro; Decrease in cellular ATP levels (% of control), individual effect, HeLa, 24 h, single compound at 10 μM): 13.6%; cytotoxicity at 24 h, 30 µM (in vitro; Decrease in cellular ATP levels (% of control), individual effect, HeLa, 24 h, single compound at 30 μM): 32.4%; Behaviour at estrogen receptors (estrogen receptors): weak partial agonist; Fold lower affinity toward hERα compared to 17β-estradiol (E2) (hERα): 10,000 fold; Fold weaker estrogenic effects vs. E2 (Ishikawa cells): 10,000 fold
C[C@H]1CCC[C@H](O)CCC/C=C/c2cc(O)cc(O)c2C(=O)O1 [α-ZEL, α-zearalenol]	statistically significant (p < 0.05) increases	Syn	Synergism (CI < 0.8: synergism)	++ (CI < 0.60: ++)	0.57	Add	Additive effect (0.8 < CI < 1.2: additive effect)	± (0.80 < CI < 1.20: ±)	0.81	20 µM	4.35	pEC50 [1]: 7.72; CI Value (combination index) ([1]; higher concentration (µM): α-ZEL 1.25 × 10^−2, β-ZEL 2.43, ZAN 4.99 × 10^−2, α-ZAL 2.48 × 10^−2, β-ZAL 2.48 × 10^−1, GEN 1.48): 0.41; Combined Estrogenic Effect [1, 6]: Synergism (CI < 0.8: synergism); Combined Estrogenic Effect (grade symbol) [1, 6]: ++ (CI < 0.60: ++); CI Value (combination index) ([1]; lower concentration (µM): α-ZEL 6.24 × 10^−3, β-ZEL 1.22, ZAN 2.50 × 10^−2, α-ZAL 1.24 × 10^−2, β-ZAL 1.24 × 10^−1, GEN 7.4 × 10^−1): 0.37; Combined Estrogenic Effect [1, 7]: Synergism (CI < 0.8: synergism); Combined Estrogenic Effect (grade symbol) [1, 7]: ++ (CI < 0.60: ++); Combined estrogenic effect in Figure 5B ([1]; higher estrogenic concentration of the compound (as E20)): synergism; Combined estrogenic effect in Figure 5B ([1]; lower estrogenic concentration of the compound (as E19)): synergism; cytotoxicity at 10 µM (in vitro): 5.5%; cytotoxicity at 30 µM (in vitro): 38.4%
